How the values were obtained:
Assay in all cases: relative viability (nuclei count vs DMSO), 5 days (fraction); higher = more cells survive
[1] = compound: CC[C@H](Nc1ncnc2[nH]cnc12)c1nc2cccc(F)c2c(=O)n1-c1ccccc1 [Idelalisib] + COc1cccc2cc(-c3nc([C@H]4CC[C@H](C(=O)O)CC4)n4ncnc(N)c34)[nH]c12 [OSI-027] (partner 0.5 µM)
Summary of the method: (§1)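 One day after seeding in 1536-well plates, lung cancer cell lines were dosed by pin tool. Dosing was either single-drug or a fixed anchor-drug dose plus five library-drug doses (not always all listed) in √10 steps. After 5 days, nuclei were stained in one fix-and-stain step and counted on 4× images, and relative viability is the nuclei count of treated wells over that of vehicle wells, given as the median of duplicate plates.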

[2] = compound: CC[C@H](Nc1ncnc2[nH]cnc12)c1nc2cccc(F)c2c(=O)n1-c1ccccc1 [Idelalisib] + C[C@]1(O)C[C@@H](c2nc(-c3ccc4ccc(-c5ccccc5)nc4c3)c3c(N)nccn32)C1 [Linsitinib] (partner 1 µM)
Summary of the method: as §1

[3] = compound: Nc1nc2[nH]cc(CCc3ccc(C(=O)N[C@@H](CCC(=O)O)C(=O)O)cc3)c2c(=O)[nH]1 [Pemetrexed] + CC(=O)c1c(C)c2cnc(Nc3ccc(N4CCNCC4)cn3)nc2n(C2CCCC2)c1=O [Palbociclib] (partner 0.5 µM)
Summary of the method: as §1

[4] = compound: Nc1nc2[nH]cc(CCc3ccc(C(=O)N[C@@H](CCC(=O)O)C(=O)O)cc3)c2c(=O)[nH]1 [Pemetrexed] + C[C@@H](Oc1cc(-c2cnn(C3CCNCC3)c2)cnc1N)c1c(Cl)ccc(F)c1Cl [Crizotinib] (partner 1 µM)
Summary of the method: as §1

| Cell Line | relative viability ([1]; first compound 0.04 µM) | relative viability ([1]; first compound 0.1265 µM) | relative viability ([1]; first compound 0.4 µM) | relative viability ([1]; first compound 1.265 µM) | relative viability ([1]; first compound 4 µM) | relative viability ([2]; first compound 0.04 µM) | relative viability ([2]; first compound 0.1265 µM) | relative viability ([2]; first compound 0.4 µM) | relative viability ([2]; first compound 1.265 µM) | relative viability ([2]; first compound 4 µM) | relative viability ([3]; first compound 0.002 µM) | relative viability ([3]; first compound 0.006325 µM) | relative viability ([3]; first compound 0.02 µM) | relative viability ([3]; first compound 0.06325 µM) | relative viability ([3]; first compound 0.2 µM) | relative viability ([4]; first compound 0.002 µM) | relative viability ([4]; first compound 0.006325 µM) | relative viability ([4]; first compound 0.02 µM) | relative viability ([4]; first compound 0.06325 µM) | relative viability ([4]; first compound 0.2 µM) |
| --- | --- | --- | --- | --- | --- | --- | --- | --- | --- | --- | --- | --- | --- | --- | --- | --- | --- | --- | --- | --- |
| 201T | 0.812 | 0.736 | 0.548 | 0.67 | 0.679 | 1.09 | 1.02 | 0.937 | 0.933 | 0.926 | 0.396 | 0.352 | 0.365 | 0.335 | 0.362 | 0.941 | 1.03 | 1.05 | 1.07 | 0.999 |
| A549 |  |  |  |  |  | 0.53 | 0.544 | 0.416 | 0.589 | 0.446 |  |  |  |  |  | 0.672 | 0.653 | 0.971 | 0.761 | 0.78 |
| A-427 | 0.443 | 0.488 | 0.332 | 0.503 | 0.469 | 1.08 | 0.896 | 1.08 | 1.13 | 1.05 | 0.505 | 0.529 | 0.572 | 0.509 | 0.483 | 0.905 | 0.894 | 0.953 | 0.936 | 0.884 |
| ABC-1 | 0.491 | 0.495 | 0.43 | 0.577 | 0.409 | 0.765 | 0.698 | 0.827 | 0.651 | 0.689 | 0.905 | 0.527 | 0.684 | 0.468 | 0.542 | 0.997 | 1.2 | 1.18 | 1 | 1.05 |
| BEN | 0.263 | 0.286 | 0.257 | 0.294 | 0.291 | 0.908 | 0.935 | 0.706 | 0.931 | 0.696 | 0.544 | 0.473 | 0.531 | 0.457 | 0.458 | 0.992 | 0.859 | 0.896 | 0.787 | 0.715 |
| Calu-6 |  |  |  |  |  | 1.06 | 1 | 0.889 | 0.942 | 0.93 |  |  |  |  |  | 0.814 | 0.754 | 0.922 | 0.72 | 0.68 |
| ChaGo-K-1 | 0.618 | 0.55 | 0.456 | 0.576 | 0.513 |  |  |  |  |  | 0.959 | 0.888 | 0.971 | 0.668 | 0.369 | 1.15 | 1 | 0.969 | 0.366 | 0.344 |
| EBC-1 |  |  |  |  |  | 0.762 | 1.03 | 0.907 | 0.84 | 0.637 |  |  |  |  |  | 0.175 | 0.174 | 0.209 | 0.165 | 0.183 |
| IA-LM |  |  |  |  |  | 0.426 | 0.83 | 0.709 | 0.541 | 0.404 |  |  |  |  |  | 0.807 | 0.665 | 0.772 | 0.804 | 0.634 |
| NCI-H522 | 0.823 | 0.711 | 0.729 | 0.771 | 0.698 |  |  |  |  |  | 1.22 | 0.82 | 1.09 | 0.985 | 0.843 |  |  |  |  |  |
